Measured values taken from paper PMC7167818, “Addition of K22 Converts Spider Venom Peptide Pme2a from an Activator to an Inhibitor of NaV1.7” (Biomedicines, 2020).
Entries after “also recorded” stand apart in the source; their conditions may differ. Bridge positions count the residues as written; N and C are the ends. Peptide text beside a SMILES is read from it.

Key:
[1] = target: T1, hNaV1.7/β1 (Homo sapiens, UniProt Q15858); assay: Whole-cell automated patch-clamp, peak current at hNaV1.7; type: cell-based
T1 sequence (Q07699 19-218): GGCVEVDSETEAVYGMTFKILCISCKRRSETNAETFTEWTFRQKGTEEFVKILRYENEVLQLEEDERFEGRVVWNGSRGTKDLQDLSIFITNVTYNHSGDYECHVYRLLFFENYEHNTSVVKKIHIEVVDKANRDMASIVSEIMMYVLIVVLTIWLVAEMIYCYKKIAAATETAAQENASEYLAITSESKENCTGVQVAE
T1 sequence (Q15858 whole entry): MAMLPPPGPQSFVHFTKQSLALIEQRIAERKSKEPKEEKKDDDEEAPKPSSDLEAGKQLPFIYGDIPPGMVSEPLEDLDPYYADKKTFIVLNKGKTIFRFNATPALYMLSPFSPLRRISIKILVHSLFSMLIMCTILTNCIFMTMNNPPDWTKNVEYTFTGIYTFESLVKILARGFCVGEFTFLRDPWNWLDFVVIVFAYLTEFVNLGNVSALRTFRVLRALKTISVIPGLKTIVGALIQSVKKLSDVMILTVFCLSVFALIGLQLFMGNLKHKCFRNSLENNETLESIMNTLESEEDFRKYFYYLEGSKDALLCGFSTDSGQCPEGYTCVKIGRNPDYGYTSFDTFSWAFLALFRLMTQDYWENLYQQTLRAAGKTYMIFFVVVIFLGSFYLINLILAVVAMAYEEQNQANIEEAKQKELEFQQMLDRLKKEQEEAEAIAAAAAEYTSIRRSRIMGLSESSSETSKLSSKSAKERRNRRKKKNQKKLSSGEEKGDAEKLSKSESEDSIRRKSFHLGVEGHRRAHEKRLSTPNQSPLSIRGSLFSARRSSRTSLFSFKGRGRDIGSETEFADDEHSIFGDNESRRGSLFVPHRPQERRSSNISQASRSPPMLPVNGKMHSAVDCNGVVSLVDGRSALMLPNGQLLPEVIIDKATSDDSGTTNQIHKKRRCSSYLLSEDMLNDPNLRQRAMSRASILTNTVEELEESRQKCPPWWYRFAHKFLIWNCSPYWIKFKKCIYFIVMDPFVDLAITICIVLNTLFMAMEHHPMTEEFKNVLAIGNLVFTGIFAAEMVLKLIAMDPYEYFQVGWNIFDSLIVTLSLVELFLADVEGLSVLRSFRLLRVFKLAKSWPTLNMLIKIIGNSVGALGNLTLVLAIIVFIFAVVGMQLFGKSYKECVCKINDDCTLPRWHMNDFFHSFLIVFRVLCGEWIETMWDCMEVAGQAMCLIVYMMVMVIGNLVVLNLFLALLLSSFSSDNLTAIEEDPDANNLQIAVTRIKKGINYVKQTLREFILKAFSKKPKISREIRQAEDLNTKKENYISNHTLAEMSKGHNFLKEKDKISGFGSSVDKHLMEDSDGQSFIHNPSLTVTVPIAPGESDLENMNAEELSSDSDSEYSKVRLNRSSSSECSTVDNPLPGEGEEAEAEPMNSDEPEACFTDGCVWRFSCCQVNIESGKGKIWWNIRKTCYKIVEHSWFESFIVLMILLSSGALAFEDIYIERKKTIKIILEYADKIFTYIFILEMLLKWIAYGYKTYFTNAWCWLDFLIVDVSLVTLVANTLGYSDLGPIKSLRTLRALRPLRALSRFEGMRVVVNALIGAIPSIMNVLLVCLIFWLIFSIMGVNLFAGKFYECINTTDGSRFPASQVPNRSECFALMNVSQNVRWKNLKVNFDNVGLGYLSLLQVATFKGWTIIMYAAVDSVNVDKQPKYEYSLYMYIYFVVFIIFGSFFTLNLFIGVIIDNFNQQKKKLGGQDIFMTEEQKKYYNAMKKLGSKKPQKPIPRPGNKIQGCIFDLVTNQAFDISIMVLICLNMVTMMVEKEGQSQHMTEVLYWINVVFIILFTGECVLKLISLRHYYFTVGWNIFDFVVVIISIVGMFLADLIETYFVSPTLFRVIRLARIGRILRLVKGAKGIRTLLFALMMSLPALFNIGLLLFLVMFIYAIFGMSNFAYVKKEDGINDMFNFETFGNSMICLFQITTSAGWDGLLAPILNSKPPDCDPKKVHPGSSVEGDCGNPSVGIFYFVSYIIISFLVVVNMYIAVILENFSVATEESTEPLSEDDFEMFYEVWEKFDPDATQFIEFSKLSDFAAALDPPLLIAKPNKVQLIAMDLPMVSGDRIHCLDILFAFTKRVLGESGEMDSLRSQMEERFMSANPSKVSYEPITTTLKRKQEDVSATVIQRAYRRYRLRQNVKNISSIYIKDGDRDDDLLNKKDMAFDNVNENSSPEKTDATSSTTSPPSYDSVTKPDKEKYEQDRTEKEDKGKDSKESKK
Experimental: (§1) Human Embryonic Kidney (HEK) 293 cells stably expressing human NaV1.7/β1 (SB Drug Discovery, Glasgow, UK) were cultured in Minimum Essential Medium (MEM) supplemented with 10% fetal bovine serum (FBS), 2 mM L-glutamine, and the selection antibiotics G-418 (0.6 mg/mL) and blasticidin (4 μg/mL), as recommended by the manufacturer. Chinese Hamster Ovary (CHO) cells stably expressing human NaV1.8/β3 in a tetracycline-inducible system (ChanTest, Cleveland, OH, USA) were cultured in MEM supplemented with 10% FBS and 2 mM L-glutamine. Expression of hNaV1.8 was induced by the addition of tetracycline (1 μg/mL) for 48–72 h prior to assays. HEK293 cells stably expressing rat transient receptor potential vanilloid 1 (TRPV1) were cultured in Dulbecco’s Modified Eagle Medium (DMEM) containing 10% FBS under selection with hygromycin B (100 μg/mL), generated as previously described. Cells were grown in an incubator at 37 °C with 5% CO2 and passaged every 3–4 days (at 70%–80% confluency) using TrypLE Express (Thermo Fisher Scientific, Scoresby, VIC, Australia).
(§2) Whole-cell patch-clamp experiments in NaV1.7-HEK cells and NaV1.8-CHO cells were performed on a QPatch-16 automated electrophysiology platform (Sophion Bioscience, Ballerup, Denmark) as previously described. The extracellular solution contained in mM: NaCl 140, KCl 4, CaCl2 2, MgCl2 1, HEPES 10 and glucose 10; pH 7.4; osmolarity 305 mOsm. The intracellular solution contained in mM: CsF 140, EGTA/CsOH 1/5, HEPES 10 and NaCl 10; pH 7.3 with CsOH; osmolarity 320 mOsm. Concentration–response curves were acquired using a holding potential of −90 mV and a 50 ms pulse to −20 mV (for NaV1.7) or +10 mV (for NaV1.8) every 20 s (0.05 Hz). Peptides were diluted in extracellular solution with 0.1% BSA and each peptide concentration was incubated for 5 min. Peak current was normalized to buffer control. The time constant of fast inactivation (τ) was computed by fitting the current decay traces with a single exponential function using the QPatch Assay Software 5.6 (Sophion). […]
(§3) Data were plotted and analysed using GraphPad Prism, version 8.2.0. […]

[2] = test system: hNaV1.8/β3; assay: Whole-cell automated patch-clamp, peak current at hNaV1.8; type: cell-based, human; settings: 10 μM; 5 min incubation; QPatch-16; holding −90 mV, 50 ms pulse to +10 mV every 20 s; 0.1% BSA; mean ± SEM
Experimental: as §1
(§4) Whole-cell patch-clamp experiments in NaV1.7-HEK cells and NaV1.8-CHO cells were performed on a QPatch-16 automated electrophysiology platform (Sophion Bioscience, Ballerup, Denmark) as previously described. […]
as §3

[3] = target: T1, hNaV1.7/β1; assay: Time constant of fast inactivation (τ) at hNaV1.7 (patch-clamp); type: cell-based; settings: holding −90 mV, 50 ms pulse to −20 mV, n = 4 cells per data point
Experimental: as §1, §2, §3

[4] = target: T2, rTRPV1 (Rattus norvegicus, UniProt O35433); assay: Calcium responses in TRPV1-HEK cells (FLIPR); type: cell-based
T2 construct: expressed in transfected cells
T2 sequence (O35433 whole entry): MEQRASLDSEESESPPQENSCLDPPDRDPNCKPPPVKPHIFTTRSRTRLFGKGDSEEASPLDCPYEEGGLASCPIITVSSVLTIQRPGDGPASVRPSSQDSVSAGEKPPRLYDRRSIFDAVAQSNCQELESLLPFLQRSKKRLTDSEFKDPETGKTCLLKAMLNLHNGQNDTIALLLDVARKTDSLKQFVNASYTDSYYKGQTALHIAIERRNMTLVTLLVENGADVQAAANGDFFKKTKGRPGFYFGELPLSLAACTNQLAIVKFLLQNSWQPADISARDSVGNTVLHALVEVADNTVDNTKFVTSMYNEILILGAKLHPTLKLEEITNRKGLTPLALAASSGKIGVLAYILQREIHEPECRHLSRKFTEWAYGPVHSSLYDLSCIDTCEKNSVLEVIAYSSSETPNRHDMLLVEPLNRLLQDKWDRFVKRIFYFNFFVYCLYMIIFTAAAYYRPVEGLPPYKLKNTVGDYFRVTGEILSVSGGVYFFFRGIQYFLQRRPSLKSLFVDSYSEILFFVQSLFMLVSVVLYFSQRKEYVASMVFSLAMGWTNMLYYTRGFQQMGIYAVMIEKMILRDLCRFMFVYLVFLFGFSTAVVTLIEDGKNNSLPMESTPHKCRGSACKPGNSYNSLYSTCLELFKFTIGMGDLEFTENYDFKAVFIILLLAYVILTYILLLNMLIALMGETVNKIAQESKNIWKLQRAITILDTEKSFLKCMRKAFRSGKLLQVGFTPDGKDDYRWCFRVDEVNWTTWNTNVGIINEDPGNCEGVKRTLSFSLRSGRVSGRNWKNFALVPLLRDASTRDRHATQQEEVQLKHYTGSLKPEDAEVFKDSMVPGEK
Experimental: HEK293 cells stably expressing rat transient receptor potential vanilloid 1 (TRPV1) were cultured in Dulbecco’s Modified Eagle Medium (DMEM) containing 10% FBS under selection with hygromycin B (100 μg/mL), generated as previously described [16]. Cells were grown in an incubator at 37 °C with 5% CO2 and passaged every 3–4 days (at 70%–80% confluency) using TrypLE Express (Thermo Fisher Scientific, Scoresby, VIC, Australia).
HEK cells stably expressing rTRPV1 were plated 48 h before the assay on 384-well black-walled imaging plates coated with poly D-lysine (ViewPlate-384, Perkin Elmer, Victoria, Australia) at a density of 10,000–15,000 cells/well and loaded with Calcium 4 no-wash dye (Molecular Devices) diluted in PSS and incubated for 30 min at 37 °C. […] Changes in fluorescence were assessed using the FLIPR^TETRA (excitation 470–495 nm, emission 515–575 nm) every 1 s for 300 s after the addition of compounds. Fluorescence responses were quantified by the maximum increase in fluorescence calculated using ScreenWorks 3.2.0.14.
Data were plotted and analysed using GraphPad Prism, version 8.2.0. For concentration–response curves, a four-parameter Hill equation with variable Hill coefficient was fitted to the data. Data are presented as the mean ± SEM.

[5] = target: T1, hNaV1.7/β1; assay: Voltage dependence of activation at hNaV1.7 (conductance-voltage curves, patch-clamp); type: cell-based; settings: 1 μM, 5 min incubation; holding −90 mV, 500 ms steps −110 to +55 mV in 5 mV increments; Boltzmann fit; n = 3–6 cells per data point
Experimental: as §1, §4, §3

| Structure (SMILES) | EC50 ([1]; abstract, QPatch-16, holding −90 mV, 50 ms pulse to −20 mV, read-out: EC50 as given in abstract: delays fast inactivation and inhibits NaV1.7 peak current) [µM] | pharmacology at NaV1.7 (activator / inhibitor) ([1]; authors' summary in discussion) | inhibition of peak current at NaV1.8 [2] [%] | EC50 ([3]; 5 min incubation, τ from single exponential fit, read-out: estimated EC50 (delay of fast inactivation)) [µM] | effect on fast inactivation [3] | activity at TRPV1 ([4]; rTRPV1-HEK293, data not shown, concentration not given) | IC50 ([1]; 5 min incubation per concentration, QPatch-16, holding −90 mV, 50 ms pulse to −20 mV every 20 s, 0.1% BSA, mean ± SEM, n = 3–6 cells per data point, read-out: IC50 (inhibition of NaV1.7 peak current)) [µM] | activity on TRPV1 ([4]; rTRPV1-HEK293, Calcium 4 dye, up to 30 μM, n = 3–5 wells per data point) | shift of V1/2 of voltage dependence of activation (Δ) [5] |
| --- | --- | --- | --- | --- | --- | --- | --- | --- | --- |
| CSCC[C@@H]1NC(=O)[C@H](Cc2ccccc2)NC(=O)[C@H](CCCCN)NC(=O)[C@H]([C@@H](C)O)NC(=O)[C@@H](NC(=O)CN)CSSC[C@@H]2NC(=O)[C@@H]3CSSC[C@@H](C(=O)NCC(=O)N[C@@H](Cc4c[nH]c5ccccc45)C(=O)N[C@@H](CC(=O)O)C(=O)NCC(=O)N[C@H](C(=O)N[C@@H](Cc4ccccc4)C(N)=O)[C@@H](C)O)NC(=O)[C@H](Cc4c[nH]c5ccccc45)NC(=O)[C@H](CCCCN)NC(=O)[C@H](Cc4ccc(O)cc4)NC(=O)[C@H](CCCCN)NC(=O)[C@H](Cc4ccc(O)cc4)NC(=O)[C@H](CSSC[C@H](NC(=O)[C@H](CO)NC(=O)CNC1=O)C(=O)N[C@@H](CCCCN)C(=O)N[C@@H]([C@@H](C)O)C(=O)N[C@@H](CC(=O)O)C(=O)N[C@@H](C)C(=O)N[C@@H](CC(=O)O)C(=O)N3)NC(=O)[C@H](CCC(=O)O)NC(=O)[C@H](CC(C)C)NC(=O)[C@H](Cc1c[nH]cn1)NC(=O)[C@H](CCC(=O)O)NC2=O [Pme2a] (H-GCTKFMGSCKTDADCCEHLECYKYKWCGWDGTF-NH2; disulfide 2-16, 9-21, 15-27 (inferred); N-terminus assumed) | > 10 | NaV1.7 channel activator | 22 ± 4 | > 10 | concentration-dependently delaying-fast inactivation; also recorded: concentration-dependently increases the time constant of fast inactivation (τ) | no activity | – | – | – |
| CSCC[C@@H]1NC(=O)[C@H](CCCCN)NC(=O)[C@@H]2CSSC[C@@H]3NC(=O)CNC(=O)CNC(=O)[C@H](CC(C)C)NC(=O)[C@H](Cc4ccccc4)NC(=O)[C@H](Cc4ccc(O)cc4)NC(=O)[C@H](CCCNC(=N)N)NC(=O)[C@@H](NC(=O)CNC(=O)CN)CSSC[C@H](NC(=O)[C@H](CSSC[C@@H](C(=O)N[C@@H](C)C(=O)N[C@@H](Cc4c[nH]c5ccccc45)C(=O)N[C@@H](CC(=O)O)C(=O)NCC(=O)N[C@H](C(=O)N[C@@H](Cc4ccccc4)C(N)=O)[C@@H](C)O)NC(=O)[C@H](Cc4ccc(O)cc4)NC(=O)[C@H](CC(N)=O)NC(=O)[C@H](CC(C)C)NC(=O)CNC1=O)NC(=O)[C@H](CC(=O)O)NC(=O)[C@H](CO)NC(=O)[C@H](Cc1c[nH]cn1)NC(=O)[C@H](CCC(=O)O)NC(=O)[C@H](CO)NC3=O)C(=O)N[C@@H](CCC(=O)O)C(=O)N[C@@H](Cc1c[nH]cn1)C(=O)N[C@@H](CC(C)C)C(=O)N[C@@H](CCCNC(=N)N)C(=O)N2 [Pme1a] (H-GGCRYFLGGCSEHSDCCEHLRCKMGLNYCAWDGTF-NH2; disulfide 3-17, 10-22, 16-29 (inferred); N-terminus assumed) | – | – | 21 ± 2 | – | – | – | 0.334 ± 0.114 | no activity | +11.6 mV |
| CSCC[C@@H]1NC(=O)[C@H](Cc2ccccc2)NC(=O)[C@H](CCCCN)NC(=O)[C@H]([C@@H](C)O)NC(=O)[C@@H](NC(=O)CN)CSSC[C@@H]2NC(=O)[C@@H]3CSSC[C@@H](C(=O)NCC(=O)N[C@@H](Cc4c[nH]c5ccccc45)C(=O)N[C@@H](CC(=O)O)C(=O)NCC(=O)N[C@H](C(=O)N[C@@H](Cc4ccccc4)C(N)=O)[C@@H](C)O)NC(=O)[C@H](Cc4c[nH]c5ccccc45)NC(=O)[C@H](CCCCN)NC(=O)[C@H](Cc4ccc(O)cc4)NC(=O)[C@H](CCCCN)NC(=O)[C@H](Cc4ccc(O)cc4)NC(=O)[C@H](CCCCN)NC(=O)[C@H](CSSC[C@H](NC(=O)[C@H](CO)NC(=O)CNC1=O)C(=O)N[C@@H](CCCCN)C(=O)N[C@@H]([C@@H](C)O)C(=O)N[C@@H](CC(=O)O)C(=O)N[C@@H](C)C(=O)N[C@@H](CC(=O)O)C(=O)N3)NC(=O)[C@H](CCC(=O)O)NC(=O)[C@H](CC(C)C)NC(=O)[C@H](Cc1c[nH]cn1)NC(=O)[C@H](CCC(=O)O)NC2=O [[+22K]Pme2a] (H-GCTKFMGSCKTDADCCEHLECKYKYKWCGWDGTF-NH2; disulfide 2-16, 9-21, 15-28 (inferred); N-terminus assumed) | – | – | – | – | removed the effect of the native peptide on fast inactivation; also recorded: without the delay in fast activation seen with the native peptide | – | – | – | – |
